Measured values: ChEMBL document CHEMBL5321295, “Targeted Degradation of Alpha-Synuclein by Autophagosome-Anchoring Chimera Peptides” (J Med Chem, 2023)
Active and inactive are the calls of the source. The calls are words filed in the database; no cut-off is given here. Residues, ends and D or L forms follow the SMILES beside them. *: point of attachment. RhodamineB = CCN(CC)c1ccc2c(-c3ccccc3C(=O)*)c3ccc(=[N+](CC)CC)cc-3oc2c1

Tests used:
[1] = Drug localization in HEK293T cells assessed as colocalization of lysosomes at 50 uM incubated for 2 hrs by LyTG staining based confocal laser scanning microscopy; format: ADME, cell-based; details: human, hek-293t
Alpha-synuclein [2] = molecular target: T1, Alpha-synuclein (Homo sapiens, UniProt P37840); assay: Induction of EGFP-fused alpha-synuclein (unknown origin) degradation overexpressed in HEK293T cells at 50 uM incubated for 2 hrs by confocal laser scanning microscopy; format: cell-based
[3] = molecular target: T2, Microtubule-associated protein 1 light chain 3 beta (Homo sapiens, UniProt Q9GZQ8); assay: Binding affinity to EGFP-fused LC3B (unknown origin) overexpressed in HEK293T cells at 50 uM incubated for 2 hrs by confocal laser scanning microscopy; format: cell-based
[4] = Drug uptake in wild-type HEK293T cells assessed as drug penetration at 50 uM incubated upto 4 hrs by flow cytometry; format: ADME, cell-based; details: human, hek-293t
[5] = Drug uptake in wild-type HEK293T cells assessed as drug penetration upto 100 uM incubated for 2 hrs by flow cytometry; format: ADME, cell-based; details: human, hek-293t
[6] = Drug uptake in wild-type HEK293T cells assessed as drug penetration upto 50 uM incubated for 2 hrs by confocal laser scanning microscopy; format: ADME, cell-based; details: human, hek-293t
HEK-293T = assay: Cytotoxicity against wild-type HEK293T cells assessed as cell viability upto 200 uM incubated for 24 hrs by CCK8 assay; format: toxicity, cell-based; details: human
SH-SY5Y = assay: Cytotoxicity against wild-type human SH-SY5Y cells assessed as cell viability upto 200 uM incubated for 24 hrs by CCK8 assay; format: functional, cell-based
Alpha-synuclein [7] = molecular target: T1, Alpha-synuclein; assay: Induction of alpha-synuclein (unknown origin) degradation overexpressed in HEK293T cells infected with adenovirus expressing mCherry-EGFP-LC3B incubated for 24 hrs by immunoblot analysis; format: cell-based; details: for Activity: dose <= 200.0 µM
[8] = Chemical stability of compound in cell culture medium at 50 uM measured for 24 hrs by HPLC analysis; format: physicochemical
Alpha-synuclein [9] = molecular target: T1, Alpha-synuclein; assay: Induction of alpha-synuclein (unknown origin) degradation overexpressed in HEK293T cells at 50 to 100 uM incubated for 24 hrs by immunoblot analysis; format: cell-based; details: dose 50-100 µM
Alpha-synuclein [10] = molecular target: T1, Alpha-synuclein; assay: Binding affinity to biotinylated recombinant alpha-synuclein (unknown origin) assessed as dissociation constant by BLI assay
[11] = molecular target: T2, Microtubule-associated protein 1 light chain 3 beta; assay: Binding affinity to biotinylated recombinant LC3B (unknown origin) assessed as dissociation constant by BLI assay

Row | Structure (SMILES) | Activity (HEK-293T) | Activity (SH-SY5Y) | DC50 (Alpha-synuclein [7]) | Activity (Alpha-synuclein [7]) | Stability [8] | other results
1 | CCN(CC)c1ccc2c(-c3ccccc3C(=O)NCC(=O)N[C@H](C(=O)N[C@@H](CC(C)C)C(=O)N[C@@H](Cc3ccc(O)cc3)C(=O)N[C@H](C(=O)NCC(=O)N[C@@H](CO)C(=O)N[C@@H](CCCCN)C(=O)N[C@H](C(=O)N[C@@H](CCCNC(=N)N)C(=O)NCC(=O)N[C@@H](CO)C(=O)NCC(=O)N[C@@H](CO)C(=O)N[C@@H](CO)C(=O)NCC(=O)NCC(=O)N[C@@H](CC(=O)O)C(=O)N[C@@H](CC(=O)O)C(=O)N[C@@H](CC(=O)O)C(=O)N[C@@H](Cc3c[nH]c4ccccc34)C(=O)N[C@H](C(=O)N[C@@H](Cc3c[nH]cn3)C(=O)N[C@@H](CC(C)C)C(=O)N[C@@H](CO)C(=O)N[C@@H](CO)C(=O)N[C@@H](Cc3ccc(O)cc3)C(=O)NCC(=O)N[C@@H](CCCNC(=N)N)C(=O)N[C@@H](CCCCN)C(=O)N[C@@H](CCCCN)C(=O)N[C@@H](CCCNC(=N)N)C(=O)N[C@@H](CCCNC(=N)N)C(=O)N[C@@H](CCC(N)=O)C(=O)N[C@@H](CCCNC(=N)N)C(=O)N[C@@H](CCCNC(=N)N)C(=O)N[C@@H](CCCNC(=N)N)C(=O)O)[C@@H](C)O)[C@@H](C)O)C(C)C)C(C)C)c3ccc(=[N+](CC)CC)cc-3oc2c1.[Cl-] (RhodamineB-GVLYVGSKTRGSGSSGGDDDWTHLSSYGRKKRRQRRR-OH) | – | – | – | – | – | Drug uptake [1]: Active; Activity (Alpha-synuclein [2]): Active; Activity [3]: Active; Drug uptake [4]: Active; Drug uptake [5]: Active; Drug uptake [6]: Active
2 | CC(C)C[C@H](NC(=O)[C@H](Cc1c[nH]cn1)NC(=O)[C@@H](NC(=O)[C@H](Cc1c[nH]c2ccccc12)NC(=O)[C@H](CC(=O)O)NC(=O)[C@H](CC(=O)O)NC(=O)[C@H](CC(=O)O)NC(=O)CNC(=O)CNC(=O)[C@H](CO)NC(=O)[C@H](CO)NC(=O)CNC(=O)[C@H](CO)NC(=O)CNC(=O)[C@H](CCCNC(=N)N)NC(=O)[C@@H](NC(=O)[C@H](CCCCN)NC(=O)[C@H](CO)NC(=O)CNC(=O)[C@@H](NC(=O)[C@H](Cc1ccc(O)cc1)NC(=O)[C@H](CC(C)C)NC(=O)[C@@H](NC(=O)CN)C(C)C)C(C)C)[C@@H](C)O)[C@@H](C)O)C(=O)N[C@@H](CO)C(=O)N[C@@H](CO)C(=O)N[C@@H](CCCNC(=N)N)C(=O)N[C@@H](CCCNC(=N)N)C(=O)N[C@@H](CCCNC(=N)N)C(=O)N[C@@H](CCCNC(=N)N)C(=O)N[C@@H](CCCNC(=N)N)C(=O)N[C@@H](CCCNC(=N)N)C(=O)N[C@@H](CCCNC(=N)N)C(=O)O (H-GVLYVGSKTRGSGSSGGDDDWTHLSSRRRRRRR-OH) | Non-Toxic | inactive | 56.8 µM | Dose-Dependent Effect | Stable | –
3 | CCN(CC)c1ccc2c(-c3ccccc3C(=O)NCC(=O)N[C@H](C(=O)N[C@@H](CC(C)C)C(=O)N[C@@H](Cc3ccc(O)cc3)C(=O)N[C@H](C(=O)NCC(=O)N[C@@H](CO)C(=O)N[C@@H](CCCCN)C(=O)N[C@H](C(=O)N[C@@H](CCCNC(=N)N)C(=O)NCC(=O)N[C@@H](CO)C(=O)NCC(=O)N[C@@H](CO)C(=O)N[C@@H](CO)C(=O)NCC(=O)NCC(=O)N[C@@H](CC(=O)O)C(=O)N[C@@H](CC(=O)O)C(=O)N[C@@H](CC(=O)O)C(=O)N[C@@H](Cc3c[nH]c4ccccc34)C(=O)N[C@H](C(=O)N[C@@H](Cc3c[nH]cn3)C(=O)N[C@@H](CC(C)C)C(=O)N[C@@H](CO)C(=O)N[C@@H](CO)C(=O)N[C@@H](CCCNC(=N)N)C(=O)N[C@@H](CCCNC(=N)N)C(=O)N[C@@H](CCCNC(=N)N)C(=O)N[C@@H](CCCNC(=N)N)C(=O)N[C@@H](CCCNC(=N)N)C(=O)N[C@@H](CCCNC(=N)N)C(=O)N[C@@H](CCCNC(=N)N)C(=O)O)[C@@H](C)O)[C@@H](C)O)C(C)C)C(C)C)c3ccc(=[N+](CC)CC)cc-3oc2c1.[Cl-] (RhodamineB-GVLYVGSKTRGSGSSGGDDDWTHLSSRRRRRRR-OH) | – | – | – | – | – | Drug uptake [5]: Active; Drug uptake [6]: Active
4 | CC(C)C[C@H](NC(=O)CNC(=O)[C@H](Cc1ccc(O)cc1)NC(=O)[C@@H](N)C(C)C)C(=O)N[C@@H](CCCNC(=N)N)C(=O)NCC(=O)N[C@H](C(=O)N[C@@H](CO)C(=O)N[C@H](C(=O)N[C@@H](CCCCN)C(=O)NCC(=O)N[C@@H](CO)C(=O)NCC(=O)N[C@@H](CO)C(=O)N[C@@H](CO)C(=O)NCC(=O)NCC(=O)N[C@@H](CC(=O)O)C(=O)N[C@@H](CC(=O)O)C(=O)N[C@@H](CC(=O)O)C(=O)N[C@@H](Cc1c[nH]c2ccccc12)C(=O)N[C@H](C(=O)N[C@@H](Cc1c[nH]cn1)C(=O)N[C@@H](CC(C)C)C(=O)N[C@@H](CO)C(=O)N[C@@H](CO)C(=O)N[C@@H](Cc1ccc(O)cc1)C(=O)NCC(=O)N[C@@H](CCCNC(=N)N)C(=O)N[C@@H](CCCCN)C(=O)N[C@@H](CCCCN)C(=O)N[C@@H](CCCNC(=N)N)C(=O)N[C@@H](CCCNC(=N)N)C(=O)N[C@@H](CCC(N)=O)C(=O)N[C@@H](CCCNC(=N)N)C(=O)N[C@@H](CCCNC(=N)N)C(=O)N[C@@H](CCCNC(=N)N)C(=O)O)[C@@H](C)O)[C@@H](C)O)C(C)C (H-VYGLRGVSTKGSGSSGGDDDWTHLSSYGRKKRRQRRR-OH) | – | – | – | – | – | Activity (Alpha-synuclein [9]): inactive
5 | CC(C)C[C@H](NC(=O)[C@@H](NC(=O)CN)C(C)C)C(=O)N[C@@H](Cc1ccc(O)cc1)C(=O)N[C@H](C(=O)NCC(=O)N[C@@H](CO)C(=O)N[C@@H](CCCCN)C(=O)N[C@H](C(=O)N[C@@H](CCCNC(=N)N)C(=O)NCC(=O)N[C@@H](CO)C(=O)NCC(=O)N[C@@H](CO)C(=O)N[C@@H](CO)C(=O)NCC(=O)NCC(=O)N[C@@H](CC(=O)O)C(=O)N[C@@H](CC(=O)O)C(=O)N[C@@H](CC(=O)O)C(=O)N[C@@H](Cc1c[nH]c2ccccc12)C(=O)N[C@H](C(=O)N[C@@H](Cc1c[nH]cn1)C(=O)N[C@H](C(=O)N[C@@H](CO)C(=O)N[C@@H](CO)C(=O)N[C@@H](Cc1ccc(O)cc1)C(=O)NCC(=O)N[C@@H](CCCNC(=N)N)C(=O)N[C@@H](CCCCN)C(=O)N[C@@H](CCCCN)C(=O)N[C@@H](CCCNC(=N)N)C(=O)N[C@@H](CCCNC(=N)N)C(=O)N[C@@H](CCC(N)=O)C(=O)N[C@@H](CCCNC(=N)N)C(=O)N[C@@H](CCCNC(=N)N)C(=O)N[C@@H](CCCNC(=N)N)C(=O)O)C(C)C)[C@@H](C)O)[C@@H](C)O)C(C)C (H-GVLYVGSKTRGSGSSGGDDDWTHVSSYGRKKRRQRRR-OH) | – | – | – | – | – | Activity (Alpha-synuclein [9]): inactive
6 | CC[C@H](C)[C@H](NC(=O)[C@H](Cc1ccc(O)cc1)NC(=O)[C@H](CC(=O)O)NC(=O)[C@H](CCC(=O)O)NC(=O)[C@H](CO)NC(=O)[C@H](CO)NC(=O)[C@H](C)NC(=O)[C@H](CO)NC(=O)[C@H](CO)NC(=O)CNC(=O)[C@H](CO)NC(=O)CNC(=O)[C@H](CCCNC(=N)N)NC(=O)[C@@H](NC(=O)[C@H](CCCCN)NC(=O)[C@H](CO)NC(=O)CNC(=O)[C@@H](NC(=O)[C@H](Cc1ccc(O)cc1)NC(=O)[C@H](CC(C)C)NC(=O)[C@@H](NC(=O)CN)C(C)C)C(C)C)[C@@H](C)O)C(=O)N[C@H](C(=O)N[C@H](C(=O)N[C@@H](CC(C)C)C(=O)N1CCC[C@H]1C(=O)N[C@@H](Cc1ccc(O)cc1)C(=O)NCC(=O)N[C@@H](CCCNC(=N)N)C(=O)N[C@@H](CCCCN)C(=O)N[C@@H](CCCCN)C(=O)N[C@@H](CCCNC(=N)N)C(=O)N[C@@H](CCCNC(=N)N)C(=O)N[C@@H](CCC(N)=O)C(=O)N[C@@H](CCCNC(=N)N)C(=O)N[C@@H](CCCNC(=N)N)C(=O)N[C@@H](CCCNC(=N)N)C(=O)O)[C@@H](C)CC)[C@@H](C)CC (H-GVLYVGSKTRGSGSSASSEDYIIILPYGRKKRRQRRR-OH) | Non-Toxic | inactive | 73.8 µM | Dose-Dependent Effect | Stable | Kd (Alpha-synuclein [10]): 25.3 µM; Kd [11]: 15.2 µM
7 | CC[C@H](C)[C@H](NC(=O)[C@H](CCC(=O)O)NC(=O)[C@@H](NC(=O)[C@H](Cc1ccccc1)NC(=O)[C@H](CO)NC(=O)[C@H](CC(=O)O)NC(=O)[C@H](CCC(=O)O)NC(=O)[C@H](CO)NC(=O)[C@H](CO)NC(=O)CNC(=O)[C@H](CO)NC(=O)CNC(=O)[C@H](CO)NC(=O)CNC(=O)[C@H](CCCNC(=N)N)NC(=O)[C@@H](NC(=O)[C@H](CCCCN)NC(=O)[C@H](CO)NC(=O)CNC(=O)[C@@H](NC(=O)[C@H](Cc1ccc(O)cc1)NC(=O)[C@H](CC(C)C)NC(=O)[C@@H](NC(=O)CN)C(C)C)C(C)C)[C@@H](C)O)C(C)C)C(=O)N[C@@H](CCCNC(=N)N)C(=O)N[C@@H](CCSC)C(=O)N[C@@H](Cc1ccc(O)cc1)C(=O)NCC(=O)N[C@@H](CCCNC(=N)N)C(=O)N[C@@H](CCCCN)C(=O)N[C@@H](CCCCN)C(=O)N[C@@H](CCCNC(=N)N)C(=O)N[C@@H](CCCNC(=N)N)C(=O)N[C@@H](CCC(N)=O)C(=O)N[C@@H](CCCNC(=N)N)C(=O)N[C@@H](CCCNC(=N)N)C(=O)N[C@@H](CCCNC(=N)N)C(=O)O (H-GVLYVGSKTRGSGSGSSEDSFVEIRMYGRKKRRQRRR-OH) | Non-Toxic | inactive | 140 µM | Dose-Dependent Effect | Stable | Kd (Alpha-synuclein [10]): 41.6 µM; Kd [11]: 17.2 µM
